Source: patent US20100222285A1, “METHOD OF CONTROLLING THE PROLIFERATION OF VASCULAR ENDOTHELIAL CELLS AND INHIBITING LUMEN FORMATION” (Rare Sugar Production Technical Research Laboratories, LLC, priority 2004, published 2010)
“Also recorded” adds a separate entry of the source. Read-outs that look alike come from different tables or passages of the source.

Experiments:
[1] = tested on: Human umbilical cord vascular endothelial cells (HUVEC); assay: Experiment of growth: HUVEC cell number by WST-8 after 48 hrs; format: cell-based; conditions: for inhibition at 20000 µM: Homo sapiens, HUVEC, 20 mM, read-out: inhibition of growth to the control group; for antagonism of the growth inhibitory effect by D-glucose: co-existence of 20 mM D-glucose
Procedure: Human umbilical cord vascular endothelial cells (HUVEC) were purchased as primary cultured cells from KURABO (Kurabo Co., Osaka, Japan) and the cells up to P8 were used in experiments. The cells were inoculated on a 96-well plate at a rate of 3000 cells/well, and allowed to stand in Humedia EG2 (Kurabo) overnight (37° C., 5% CO2). Next morning, the medium was replaced by 90 μl of 2% FBS-containing Humedia EB2 (Kurabo), to which was then added 10 μl of additive, and after a lapse of 48 hrs the number of cells was counted. No medium was exchanged during this period. In counting, a tetrazolium salt WST-8 was added to each well (0.5 mM), and after 2 hrs the absorbance was measured at 450 nm. The tetrazolium salt added was reduced with an intracellular dehydrogenase to yield formazan depending on the number of cells in the well. In advance, the absorbance at 450 nm was confirmed to show a linearity within the range of 500 to 12000 cells in the well.

[2] = tested on: human endothelial cells and fibroblasts; assay: Experiment of luminal formation: concurrent culture, CD31 staining, area of the lumen; format: cell-based; conditions: for effect on the luminal formation: Example 1, 0.1-20 mM, 10 days; for effect on the luminal formation of HUVEC: Example 2 (36 species), incubation for 10 days; for inhibition at 20000 µM / inhibition at 1000 µM / inhibition at 2500 µM: Homo sapiens; for inhibition at 20000 µM: 20 mM; for antagonism of the luminal formation inhibitory effect by D-glucose: co-existence of 20 mM D-glucose; for inhibition of the acceleration of luminal formation by VEGF: with VEGF; for inhibition at 1000 µM: 1 mM; for inhibition at 2500 µM: 2.5 mM
Procedure: Using a concurrent culture system of human endothelial cells and fibroblasts planted on a 24-well plate (Kurabo Co., Osaka, Japan), the culture medium was replaced by culture media containing a variety of additives at the early stage of luminal formation. Every 3 days, the medium was exchanged with the additive; 10 day after incubation, the endothelial cell only was stained by using mouse anti-human CD31 antibody (Kurabo Co., Osaka, Japan), goat anti-mouse IgG AlkP Conjugate (Kurabo Co., Osaka, Japan), and BCPI (5-bromo-4-chloro-3-indolyl phosphate) (Kurabo Co., Osaka, Japan) to photograph. The visualized area of the lumen was measured by means of NIH image software.

[3] = cited from earlier work; for Ald type (%): aldehyde structure; for Fra α (%): furanose α-anomer; for Fra β (%): furanose β-anomer; for Pira β (%): pyranose β-anomer; for Pira α (%): pyranose α-anomer
[4] = Example 2 (36 species), 48 hours

## O=C[C@H](O)C[C@H](O)[C@H](O)CO [3DG, 3-deoxy-D-glucose]
[1]; Example 1, 0.1-20 mM, 48 hrs
  effect on the growth of HUVEC: effect was confirmed
[1]; Example 1, 0.1-20 mM, 48 hrs, listed as 3-deoxy-D-glucose
  effect on the growth of HUVEC: inhibit both
[1]; [4]
  effect on the growth of HUVEC: inhibitory effect was observed
[1]; 48 hrs
  inhibition at 20000 µM: 40 to 80%
[1]
  antagonism of the growth inhibitory effect by D-glucose: antagonized
[2]
  effect on the luminal formation: effect was confirmed
  effect on the luminal formation of HUVEC: inhibitory effect was observed
  inhibition at 20000 µM: 50 to 80%
  antagonism of the luminal formation inhibitory effect by D-glucose: no apparent effect
[2]; listed as 3-deoxy-D-glucose
  effect on the luminal formation: inhibit both

## O=C[C@@H](O)[C@H](O)[C@H](O)[C@H](O)CO [ALT, D-altrose]
[1]; Example 1, 0.1-20 mM, 48 hrs
  effect on the growth of HUVEC: no influence
[2]
  effect on the luminal formation: effect was confirmed
  effect on the luminal formation of HUVEC: inhibitory effect was observed
  inhibition at 20000 µM: 50 to 80%
  antagonism of the luminal formation inhibitory effect by D-glucose: no apparent effect
  inhibition of the acceleration of luminal formation by VEGF: inhibit the acceleration by VEGF

## O=C[C@H](O)[C@H](O)[C@H](O)[C@H](O)CO [Allose]
[3]
  Ald type (%): 1.38%
  Fra α (%): 5%
  Fra β (%): 7%
  Pira β (%): 70%

## O=C[C@@H](O)[C@H](O)[C@H](O)CO [Arabinose]
[3]
  Ald type (%): 0.28%
  Pira β (%): 34%
[3]; chair form of pyranose α
  C1/1C: 1C
[3]; chair form of pyranose β
  C1/1C: mix
[3]; furanose, total of α and β
  Fra α + Fra β total (%): total 3%

## O=C[C@H](O)[C@@H](O)[C@H](O)[C@H](O)CO [D-glucose]
[3]; in an aqueous solution
  share of the chair type C1: ~100%
[1]; Example 1, 0.1-20 mM, 48 hrs
  effect on the growth of HUVEC: no difference; also recorded: does not inhibit
[2]
  effect on the luminal formation: does not inhibit

## O=CC[C@H](O)[C@H](O)CO [DRI, 2-deoxy-D-ribose]
[1]; Example 1, 0.1-20 mM, 48 hrs
  effect on the growth of HUVEC: effect was confirmed
[1]; [4]
  effect on the growth of HUVEC: inhibitory effect was observed
[1]; 48 hrs
  inhibition at 20000 µM: 40 to 80%
[1]
  antagonism of the growth inhibitory effect by D-glucose: no antagonism
[2]
  effect on the luminal formation: effect was confirmed
  effect on the luminal formation of HUVEC: inhibitory effect was observed; also recorded: strong action
  inhibition at 1000 µM: ~20%
  inhibition at 2500 µM: > 95%
  antagonism of the luminal formation inhibitory effect by D-glucose: no apparent effect
  inhibition of the acceleration of luminal formation by VEGF: inhibit the acceleration by VEGF

## O=C(CO)[C@H](O)[C@@H](O)[C@H](O)CO [DSO, D-sorbose]
[1]; [4]
  effect on the growth of HUVEC: no remarkable effect

## O=C(CO)[C@@H](O)[C@H](O)[C@H](O)CO [FRU, D-fructose]
[1]; [4]
  effect on the growth of HUVEC: no remarkable effect

## O=C(CO)[C@@H](O)[C@H](O)[C@H](O)CO [Fructose]
[3]; chair form of pyranose α
  C1/1C: mix
[3]; chair form of pyranose β
  C1/1C: 1C
[3]
  Pira α (%): 28%
  Pira β (%): 72%

## O=C[C@H](O)[C@H](O)[C@@H](O)[C@H](O)CO [GUL, D-gulose]
[1]; Example 1, 0.1-20 mM, 48 hrs
  effect on the growth of HUVEC: no influence
[2]
  effect on the luminal formation: effect was confirmed
  effect on the luminal formation of HUVEC: inhibitory effect was observed
  inhibition at 20000 µM: 50 to 80%
  antagonism of the luminal formation inhibitory effect by D-glucose: no apparent effect
  inhibition of the acceleration of luminal formation by VEGF: inhibit the acceleration by VEGF

## O=C[C@H](O)[C@@H](O)[C@@H](O)[C@H](O)CO [Galactose]
[3]
  Ald type (%): 0.082%
  Fra α (%): trace
  Fra β (%): trace
  Pira β (%): 64%

## O=C[C@@H](O)[C@H](O)[C@@H](O)[C@H](O)CO [Idose]
[3]; chair form of pyranose α
  C1/1C: mix
[3]
  Fra α (%): 16%
  Fra β (%): 16%
  Pira β (%): 37%

## O=C[C@@H](O)[C@@H](O)[C@@H](O)[C@@H](O)CO [LAL, L-allose]
[1]; Example 1, 0.1-20 mM, 48 hrs
  effect on the growth of HUVEC: no influence
[2]
  effect on the luminal formation: effect was confirmed
  effect on the luminal formation of HUVEC: inhibitory effect was observed
  inhibition at 20000 µM: 50 to 80%
  antagonism of the luminal formation inhibitory effect by D-glucose: antagonized

## O=CC[C@@H](O)[C@@H](O)CO [LDR, 2-deoxy-L-ribose]
[1]; Example 1, 0.1-20 mM, 48 hrs
  effect on the growth of HUVEC: effect was confirmed
[1]; [4]
  effect on the growth of HUVEC: inhibitory effect was observed
[1]; 48 hrs
  inhibition at 20000 µM: 40 to 80%
[1]
  antagonism of the growth inhibitory effect by D-glucose: no antagonism
[2]
  effect on the luminal formation: effect was confirmed
  effect on the luminal formation of HUVEC: inhibitory effect was observed; also recorded: strong action
  inhibition at 1000 µM: ~20%
  inhibition at 2500 µM: > 95%
  antagonism of the luminal formation inhibitory effect by D-glucose: no apparent effect
  inhibition of the acceleration of luminal formation by VEGF: inhibit the acceleration by VEGF

## O=C(CO)[C@H](O)[C@@H](O)[C@@H](O)CO [LFR, L-fructose]
[1]; [4]
  effect on the growth of HUVEC: no remarkable effect

## O=C(CO)[C@@H](O)[C@@H](O)[C@@H](O)CO [LPS, L-psicose]
[1]; [4]
  effect on the growth of HUVEC: no remarkable effect

## O=C[C@@H](O)[C@@H](O)[C@@H](O)CO [LRI, L-ribose]
[1]; Example 1, 0.1-20 mM, 48 hrs
  effect on the growth of HUVEC: no influence
[2]
  effect on the luminal formation: effect was confirmed
  effect on the luminal formation of HUVEC: inhibitory effect was observed
  inhibition at 20000 µM: 50 to 80%
  antagonism of the luminal formation inhibitory effect by D-glucose: no apparent effect
  inhibition of the acceleration of luminal formation by VEGF: inhibit the acceleration by VEGF

## O=C(CO)[C@H](O)[C@H](O)[C@@H](O)CO [LTA, L-tagatose]
[1]; [4]
  effect on the growth of HUVEC: no remarkable effect

## O=C[C@@H](O)[C@@H](O)[C@H](O)CO [Lyxose]
[3]
  Ald type (%): 0.4%
  Pira β (%): 28%
[3]; chair form of pyranose α
  C1/1C: mix

## O=C(CO)[C@H](O)[C@H](O)[C@H](O)CO [Psicose]
[3]; chair form of pyranose β
  C1/1C: 1C
[3]
  Pira α (%): 33%
  Pira β (%): 67%

## O=C[C@H](O)[C@H](O)[C@H](O)CO [RIB, D-ribose]
[1]; Example 1, 0.1-20 mM, 48 hrs
  effect on the growth of HUVEC: no influence
[2]
  effect on the luminal formation: effect was confirmed
  effect on the luminal formation of HUVEC: inhibitory effect was observed
  inhibition at 20000 µM: 50 to 80%
  antagonism of the luminal formation inhibitory effect by D-glucose: no apparent effect
  inhibition of the acceleration of luminal formation by VEGF: inhibit the acceleration by VEGF

## O=C[C@H](O)[C@H](O)[C@H](O)CO [Ribose]
[3]
  Ald type (%): 8.5%
  Fra α (%): 6%
  Fra β (%): 18%
  Pira β (%): 56%
[3]; chair form of pyranose α
  C1/1C: mix
[3]; chair form of pyranose β
  C1/1C: mix

## O=C(CO)[C@@H](O)[C@H](O)[C@@H](O)CO [SOR, L-sorbose]
[1]; Example 1, 0.1-20 mM, 48 hrs
  effect on the growth of HUVEC: effect was confirmed; also recorded: inhibitory effect for growth
[1]; [4]
  effect on the growth of HUVEC: growth inhibition; also recorded: inhibitory effect was observed
[1]; 48 hrs
  inhibition at 20000 µM: 40 to 80%
[1]
  antagonism of the growth inhibitory effect by D-glucose: no antagonism
[2]
  effect on the luminal formation: no influence

## O=C(CO)[C@@H](O)[C@@H](O)[C@H](O)CO [TAG, D-tagatose]
[1]; [4]
  effect on the growth of HUVEC: no remarkable effect

## O=C[C@@H](O)[C@@H](O)[C@@H](O)[C@H](O)CO [TAO, D-talose]
[1]; Example 1, 0.1-20 mM, 48 hrs
  effect on the growth of HUVEC: no influence
[2]
  effect on the luminal formation: effect was confirmed
  effect on the luminal formation of HUVEC: inhibitory effect was observed
  inhibition at 20000 µM: 50 to 80%

## O=C(CO)[C@@H](O)[C@@H](O)[C@H](O)CO [Tagatose]
[3]
  Pira α (%): 89%
  Pira β (%): 11%

## O=C[C@H](O)[C@@H](O)[C@H](O)CO [Xylose]
[3]
  Ald type (%): 0.17%
  Pira β (%): 63%
